In patent US11066365B2, “1-cyano-pyrrolidine compounds as USP30 inhibitors” (Mission Therapeutics Limited, priority 2015, dated 2021):

Molecular target: USP30 (Homo sapiens (Human), UniProt Q70CQ3)
Assay: USP30 biochemical IC50 assay (fluorescence polarisation, FP)
Conditions: USP30 biochemical FP or FI IC50 assay (table does not say which format per compound); read-out: IC50 range
Description: In Vitro USP30 FP Inhibition Assay
USP30 Biochemical IC50 Assay
Dilution plates were prepared at 21 times the final concentration (2100 μM for a final concentration of 100 μM) in 50% DMSO in a 96-well polypropylene V-bottom plate (Greiner #651201). A typical 8-point dilution series would be 100, 30, 10, 3, 1, 0.3, 0.1, 0.03 μM final. Reactions were performed in duplicate in black 384 well plates (small volume, Greiner 784076) in a final reaction volume of 21 μl. Either 1 μl of 50% DMSO or diluted compound was added to the plate. USP30 was diluted in reaction buffer (40 mM Tris, pH 7.5, 0.005% Tween 20, 0.5 mg/ml BSA, 5 mM beta-mercaptoethanol) to the equivalent of 0.05 μl/well and 10 μl of diluted USP30 was added to the compound. Enzyme and compound were incubated for 30 min at room temp. Reactions were initiated by the addition of 50 nM of TAMRA labelled peptide linked to ubiquitin via an iso-peptide bond as fluorescence polarisation substrate. Reactions were read immediately after addition of substrate and following a 2 hr incubation at room temperature. Readings were performed on a Pherastar Plus (BMG Labtech).

Chain of USP30 (Q70CQ3 57-517): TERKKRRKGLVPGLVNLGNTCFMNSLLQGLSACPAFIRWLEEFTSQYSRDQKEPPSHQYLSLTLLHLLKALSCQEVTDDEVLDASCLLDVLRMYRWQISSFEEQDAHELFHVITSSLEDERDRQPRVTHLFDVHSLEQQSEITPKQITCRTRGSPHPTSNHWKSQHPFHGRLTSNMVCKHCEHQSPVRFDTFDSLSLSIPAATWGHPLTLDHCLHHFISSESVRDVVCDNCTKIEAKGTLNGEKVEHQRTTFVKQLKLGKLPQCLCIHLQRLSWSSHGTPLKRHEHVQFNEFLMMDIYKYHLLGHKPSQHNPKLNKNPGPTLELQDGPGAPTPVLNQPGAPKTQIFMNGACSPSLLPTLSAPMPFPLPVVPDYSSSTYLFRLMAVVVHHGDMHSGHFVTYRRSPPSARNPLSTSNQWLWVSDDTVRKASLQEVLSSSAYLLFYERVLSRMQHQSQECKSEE

How did the IC50 turn out when “rac-(3aR,6aR)-1-(3-phenyl-1H- pyrazole-5- carbonyl)hexahydropyrrolo[3,4- bipyrrole-5(1H)-carbonitrile [Example 52]” was run?
The IC50 was 100 to 1000 nM.
